In patent US7166739B2, “Esters of monomethyl branched alcohols and process for preparing and using same in cosmetics and personal care products” (Finetex, Inc., priority 2004, dated 2007):

Experiments:
[1] = Solubility of esters in various solvents (1 gram of ester in 10 gm. solvent)
[2] = Spreading coefficient of esters (typical properties); format: physicochemical; design: unit not given here
Method: (§1) An analysis of the esters of the invention, i.e., Benzoate ester (Ref. No. 130-63); Octanoate Ester (Ref. No. 130-67); and Maleate Ester (Ref. No. 134-26), was conducted as to appearance, color, percentage water, acidity, saponification value, surface tension, spreading coefficient, freezing point, refractive index and specific gravity. The results are presented in Table I which identifies typical properties of the esters of the invention.

[3] = Viscosity of esters (typical properties); format: physicochemical; conditions: @ 25° C.
Method: as §1

[4] = Surface tension of esters (typical properties); format: physicochemical
Method: as §1

Solubility in Dow Corning Fluid 245/345 [1]: +
Solubility in Ethanol [1]: +
Solubility in Finester EH-25 [1]: +
Solubility in Finsolv BOD [1]: +
Solubility in Finsolv EB [1]: +
Solubility in Finsolv EMG-20 [1]: −
Solubility in Finsolv P [1]: +
Solubility in Finsolv PG-22 [1]: +
Solubility in Finsolv PL-62 [1]: +
Solubility in Finsolv PL-355 [1]: +
Solubility in Finsolv SB [1]: +
Solubility in Finsolv TN [1]: +
Solubility in Glycerine [1]: −
Solubility in IPM/IPP (Witconol 2314/2316) [1]: +
Solubility in Mineral Oil [1]: +
Solubility in Propylene Glycol [1]: −
Solubility in Water [1]: −
Spreading Coefficient [2]: 34.0
Viscosity [3]: 80 cps
Surface Tension [4]: 30.5 dynes/cm
Substance: Di(C16–17 alkyl) maleate [Maleate Ester (134-26)]
